The results in this text go back to patent US7943601B2, “2-methylene-20-methyl-19,24,25,26,27-pentanor-vitamin D analogs” (Wisconsin Alumni Research Foundation, priority 2007, dated 2011).

The subject of test [1] is 24-hydroxylase (24Ohase) gene promoter. Nature of the test: In vitro transcription assay, luciferase reporter in ROS 17/2.8 (bone) cells. Type of test: cell-based. The note with it: ROS 17/2.8 cells, sixteen hours after dosing; read-out: EC50, transcriptional activity in bone cells (24-hydroxylase gene). Here is the method: Transcription activity was measured in ROS 17/2.8 (bone) cells that were stably transfected with a 24-hydroxylase (24Ohase) gene promoter upstream of a luciferase reporter gene (Arbour et al., 1998). Cells were given a range of doses. Sixteen hours after dosing the cells were harvested and luciferase activities were measured using a luminometer.
RLU=relative luciferase units.
(A reporter such as luciferase makes a cellular process visible.)

Test [2] has as its system vitamin D-deficient rats. Briefly: Intestinal calcium transport (everted gut sac method). The test is classed as in vivo, rat. The procedure: (§1) Male, weanling Sprague-Dawley rats were placed on Diet 11 (0.47% Ca) diet+AEK oil for one week followed by Diet 11 (0.02% Ca)+AEK oil for 3 weeks. The rats were then switched to a diet containing 0.47% Ca for one week followed by two weeks on a diet containing 0.02% Ca. Dose administration began during the last week on 0.02% calcium diet. Four consecutive ip doses were given approximately 24 hours apart. Twenty-four hours after the last dose, blood was collected from the severed neck and the concentration of serum calcium determined as a measure of bone calcium mobilization. The first 10 cm of the intestine was also collected for intestinal calcium transport analysis using the everted gut sac method.

The subject of test [3] is vitamin D-deficient rats. Briefly: Bone calcium mobilization (serum calcium). The test is classed as in vivo, rat. The settings on record: rats on low calcium diet (0.02%); for bone calcium mobilization (serum calcium levels): all dose levels tested, four ip doses. The procedure:
as §1

The subject of a further test is HL-60 cells. Nature of the test: HL-60 differentiation (nitro blue tetrazolium reduction). Type of test: cell-based, human. The note with it: four days, read-out: EC50, HL-60 cell differentiation. Here is the method:
The study drugs were dissolved in ethanol and the concentrations determined using UV spectrophotometry. Serial dilutions were prepared so that a range of drug concentrations could be tested without changing the final concentration of ethanol (≦0.2%) present in the cell cultures.
Human promyelocytic leukemia (HL60) cells were grown in RPMI-1640 medium containing 10% fetal bovine serum. The cells were incubated at 37° C. in the presence of 5% CO2.
HL60 cells were plated at 1.2×10^5 cells/ml. Eighteen hours after plating, cells in duplicate were treated with drug. Four days later, the cells were harvested and a nitro blue tetrazolium reduction assay was performed (Collins et al., 1979; J. Exp. Med. 149:969-974). The percentage of differentiated cells was determined by counting a total of 200 cells and recording the number that contained intracellular black-blue formazan deposits. Verification of differentiation to monocytic cells was determined by measuring phagocytic activity (data not shown).

Test [4] concerns the target T1, full-length recombinant rat vitamin D receptor (Rattus norvegicus, UniProt P13053).
T1 construct: Full-length recombinant rat receptor was expressed in E. coli; histidine tag (C); made in house; host or cells: E. coli BL21 (DE3) Codon Plus RIL
T1 sequence (P13053 1-423): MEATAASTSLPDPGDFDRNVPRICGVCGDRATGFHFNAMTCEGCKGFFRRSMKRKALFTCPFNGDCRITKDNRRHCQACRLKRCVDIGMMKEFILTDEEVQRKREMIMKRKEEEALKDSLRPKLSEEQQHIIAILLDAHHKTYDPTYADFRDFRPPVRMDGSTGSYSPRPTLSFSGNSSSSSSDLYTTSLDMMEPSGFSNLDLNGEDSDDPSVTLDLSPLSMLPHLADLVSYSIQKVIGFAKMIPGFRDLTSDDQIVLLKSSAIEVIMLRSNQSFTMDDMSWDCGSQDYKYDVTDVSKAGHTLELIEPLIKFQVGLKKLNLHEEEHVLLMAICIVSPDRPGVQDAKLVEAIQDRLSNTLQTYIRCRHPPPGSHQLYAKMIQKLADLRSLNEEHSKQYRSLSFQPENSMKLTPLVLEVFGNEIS
Nature of the test: Vitamin D receptor binding, competition with [3H]-1,25(OH)2D3. Here is the method: Full-length recombinant rat receptor was expressed in E. coli BL21 (DE3) Codon Plus RIL cells and purified to homogeneity using two different column chromatography systems. The first system was a nickel affinity resin that utilizes the C-terminal histidine tag on this protein. The protein that was eluted from this resin was further purified using ion exchange chromatography (S-Sepharose Fast Flow). Aliquots of the purified protein were quick frozen in liquid nitrogen and stored at −80° C. until use. For use in binding assays, the protein was diluted in TEDK50 (50 mM Tris, 1.5 mM EDTA, pH7.4, 5 mM DTT, 150 mM KCl) with 0.1% Chaps detergent. The receptor protein and ligand concentration were optimized such that no more than 20% of the added radiolabeled ligand was bound to the receptor.
Radiolabeled and unlabeled ligands were added to 100 mcl of the diluted protein at a final ethanol concentration of ≦10%, mixed and incubated overnight on ice to reach binding equilibrium. The following day, 100 mcl of hydroxylapatite slurry (50%) was added to each tube and mixed at 10-minute intervals for 30 minutes. The hydroxylapaptite was collected by centrifugation and then washed three times with Tris-EDTA buffer (50 mM Tris, 1.5 mM EDTA, pH 7.4) containing 0.5% Titron X-100. […] Total binding was determined from the tubes containing only radiolabeled ligand.

Where [5] appears, read: 260 pmol/day ip for 4 consecutive days, everted gut sac.

Structures are written as SMILES. Where two headings read alike, the source gives them in different places.

In the case of `C=C1[C@H](O)CC(=C/C=C2\CCC[C@]3(C)[C@@H](C(C)(C)CC)CC[C@@H]23)C[C@H]1O` [20DCM, 2-methylene-20-methyl-1α-hydroxy-19,24,25,26,27-pentanor-vitamin D3], the EC50 in test [1] amounted to 4 nM; in the test with HL-60 cells (Homo sapiens, 96 h), 10 nM. For the same compound, the intestinal calcium transport result is listed as “promotes intestinal calcium transport only slightly” in the test with vitamin D-deficient rats [2] (setting [5]); “no significant intestinal calcium transport activity” with vitamin D-deficient rats [2] (7020 pmol/day ip for 4 consecutive days, everted gut sac); “very little activity” in the test with vitamin D-deficient rats [2] (four consecutive ip doses, doses tested, compared to 1,25(OH)2D3). Besides, the bone calcium mobilization entry is “did not result in mobilization of bone calcium” with vitamin D-deficient rats [3] (260 pmol/day ip for 4 consecutive days) and “without effect” with vitamin D-deficient rats [3] (7020 pmol/day ip for 4 consecutive days). Also, the “bone calcium mobilization (serum calcium levels)” value with vitamin D-deficient rats [3] is “does not have any measurable activity”. For the same compound, the “affinity for the vitamin D receptor relative to 1,25(OH)2D3” value in test [4] (compared to 1,25(OH)2D3) was “approximately one-half log less affinity”. For the same compound, in test [4] (full-length recombinant rat vitamin D receptor, read-out: Ki, competition with [3H]-1,25(OH)2D3 for binding to VDR), the inhibition constant Ki came to 0.08 nM.
Consider `C=C1/C(=C\C=C2/CCC[C@]3(C)[C@@H]([C@H](C)CCCC(C)(C)O)CC[C@@H]23)C[C@@H](O)C[C@@H]1O` [1,25(OH)2D3, 1α,25-dihydroxyvitamin D3, reference compound], for which the EC50 in test [1] amounted to 0.2 nM; in the test with HL-60 cells, 4 nM. Also, the intestinal calcium transport result with vitamin D-deficient rats [2] (setting [5]) is recorded as “promotes a significant increase”. The “bone calcium mobilization (serum calcium levels)” value in the test on vitamin D-deficient rats [3] was “increased serum calcium levels at all dosages”.

The EC50 is the concentration at which the effect is half-maximal. As usually defined, the Ki is a dissociation constant, usually derived from enzyme kinetics or from competition with a known ligand.
